Laboratory results published in article doi:10.1101/2025.08.13.670122v1 (bioRxiv, 2025).
Where two headings read alike, the source gives them in different places.

Tests used:
endogenous AT1R = biological target: T1, endogenous AT1R (Rattus norvegicus, UniProt P25095); assay: PKC BRET sensor in rat primary VSMC with endogenous AT1R; type: cell-based; details: for Emax PKC in VSMCs (% AngII): PKC sensor, for 12 and TRV027 response at 10 μM; for EC50: adenoviral PKC BRET sensor, 1 min stimulation, mean ± SEM of at least three to five independent experiments, read-out: EC50 PKC in VSMCs
T1 construct: expressing low levels of endogenous AT1R; endogenous in cells; host or cells: rat primary VSMC, passages 13-15
T1 sequence (P25095 1-359): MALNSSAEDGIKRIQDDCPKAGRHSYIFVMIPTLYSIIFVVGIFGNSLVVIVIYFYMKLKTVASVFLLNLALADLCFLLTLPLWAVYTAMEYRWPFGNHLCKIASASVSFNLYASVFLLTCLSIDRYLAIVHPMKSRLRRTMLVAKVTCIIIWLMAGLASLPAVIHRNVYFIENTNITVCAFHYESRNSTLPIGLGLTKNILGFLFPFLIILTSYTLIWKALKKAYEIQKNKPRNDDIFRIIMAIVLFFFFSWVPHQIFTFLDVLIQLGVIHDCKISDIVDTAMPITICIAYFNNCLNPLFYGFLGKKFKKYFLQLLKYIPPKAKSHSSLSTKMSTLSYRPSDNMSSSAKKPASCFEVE
Text: We next assessed the analogs’ ability to engage Gαq by assessing either the PKC or Rho responses in rat primary vascular smooth muscle cell (VSMC) culture, expressing low levels of endogenous AT1R (between 25–50 fmol/mg) (Figure 4, Table 6).
The coding regions of the PKC-c1b sensor, PKN-RBD-RlucII, and rGFPcaax were PCR-amplified and subcloned into the KpnI/XhoI sites of the pENTR3C vector (Invitrogen), respectively. These were then transferred into the adenoviral expression vector pAd/CMV/V5-DEST (Invitrogen), via gateway cloning (pAD-CMV-PKC-c1b, pAD-CMV-PKN-RBD-RLucII, and pAD-CMV-rGFPcaax). Viruses containing the sensor codes were generated following a previously outlined process.[49] […] The following day, cells were transfected with 4 µg of PacI-digested pAd5-CMVsensors using Lipofectamine 2000 (Invitrogen). After 7–10 days post-transfection, mature virus particles were gleaned via the collection of cells and media, which then underwent multiple cycles of freezing and thawing, followed by centrifugation. The harvested virus was amplified by re-infection on 100-mm dishes of confluent HEK293A cells, and harvested 48-72 h later. Viral titers were determined by serial dilution of adenovirus stock and subsequent infection of HEK293A cells in 96-well plates. 36 h after infection, cells were stained using an anti-hexon antibody (ab8249; Abcam), and hexon-expressing cells were tallied via fluorescence microscopy. The virus was then stored at −80°C. After this, rat VSMCs (between the 13th to 15th passages) were seeded at a density of 20,000 cells in each well of white 96-well plates 24 h before transduction with the viral vector. The cells were then transduced with the PKC sensor-adenovirus (3 μL per well) or Rho sensor (1 μL each per well of PKN-RBD-RLucII-adnovirus and rGFP-caax adenovirus). After 24 h, the medium was replaced. 48 h post-viral transduction, the cells were thoroughly washed with Tyrode’s buffer. Finally, BRET assays were carried out as detailed below.
On the day of the experiment, each well was washed with 80 µL of Tyrode’s buffer (140 mM NaCl, 2.7 mM KCl, 1 mM CaCl2, 12 mM NaHCO3, 5.6 mM D-glucose, 0.5 mM MgCl2, 0.37 mM NaH2PO4, 25 mM Hepes (pH 7.4)). This was followed by incubation for 1 h in Tyrode’s buffer at room temperature. For the Gαq, β-arrestin-2, and PKC biosensors used in HEK293 cells, coelenterazine 400A (at a final concentration of 5 μM) was added 10 min before stimulation. Cells were then stimulated with increasing doses of the indicated ligand, and BRET signals were measured using a Tristar2 (Berthold) microplate reader 10 min later. For the PKC and Rho biosensors in VSMCs, and the Rho biosensor in ΔG12/13 cells, cells were similarly stimulated with ligands for 1 min, 1 min 30 s, and 3 min, respectively, before BRET measurement. […] BRET signals were then measured using a Synergy2 (BioTek) microplate reader. The applied filter set was 410/80 nm and 515/30 nm, designed to detect the light emissions of RlucII (Renilla luciferase) (donor) and rGFP (acceptor), respectively.

Plasma stability = type: in vitro ADME; details: male Sprague-Dawley rat plasma, 6 μL of 1 mM compound (10% DMSO) in 27 μL plasma, 37°C, 0-24 h, UPLC-MS, one-phase decay, mean ± SEM of at least three experiments, read-out: Plasmatic half-life t1/2 (±SEM)
Description: The degradation was quenched by adding 140 μL of 1% formic acid in an acetonitrile-ethanol (1:1) solution containing 0.25 mM of N,N-dimethylbenzamide (used as an internal standard). This mixture was initially transferred to an Impact Protein Precipitation filter plate (Phenomenex, California), the filtrates from which were subsequently collected in a second 96-well UPLC plate. Both plates were centrifuged at 500 g for 10 min while maintaining a temperature of 4°C. The filtrates were then diluted with 30 μL of distilled water and processed for analysis using an Acquity UPLC-MS system class H (using an Acquity UPLC protein BEH C18 column that measured 2.1 mm × 50 mm and had 1.7 μm particles with pores 130 Å in width). The peptide half-life, derived from the degradation curve, was calculated using the exponential one-phase decay function in GraphPad Prism 9. Degradation was estimated by comparing the mass spectrum at each point with those at the zero-minute mark. The data were presented as a mean ± SEM of at least three unique experiments, each performed in singlicate.

| Emax PKC in VSMCs (% AngII) (endogenous AT1R) | EC50 (endogenous AT1R; SEM) [nM] | half-life at 182 µM (Plasma stability) [min] | EC50 (endogenous AT1R) [nM] | SMILES |
| --- | --- | --- | --- | --- |
| 104 | 79.8 ± 17.7 | 33 ± 4 |  | CC[C@H](C)[C@H](NC(=O)[C@H](Cc1ccc(O)cc1)NC(=O)[C@@H](NC(=O)[C@H](CCCNC(=N)N)NC(=O)[C@@H](N)CC(=O)O)C(C)C)C(=O)N[C@@H](Cc1c[nH]cn1)C(=O)N1CCC[C@H]1C(=O)N[C@@H](Cc1ccc(OC)cc1)C(=O)O [compound 11] |
| 13 |  | 32 ± 3 | > 10000 | CC[C@H](C)[C@H](NC(=O)[C@H](Cc1ccc(O)cc1)NC(=O)[C@@H](NC(=O)[C@H](CCCNC(=N)N)NC(=O)[C@@H](N)CC(=O)O)C(C)C)C(=O)N[C@@H](Cc1c[nH]cn1)C(=O)N1CCC[C@H]1C(=O)N[C@@H](Cc1ccc(OCc2ccccc2)cc1)C(=O)O [compound 12] |
